Test results as given in patent publication US10494364B2, “Cathepsin K inhibitors and application thereof” (SUNSHINE LAKE PHARMA CO., LTD., priority 2015, dated 2019).

Key:
Assay type in all cases: biochemical
human cathepsin S = human cathepsin S (Homo sapiens, UniProt P25774); experiment: Assay of cathepsin S inhibitory activity in vitro; conditions: IC50 against human cathepsin S; substrate Z-VVR-AMC 20 μM; 25° C.; read-out: Cat-S
Method: Assay Method of Cathepsin S Inhibitory Activity In Vitro
0.25 ng/L was the final concentration of Cathepsin S in the enzyme reaction, and Z-VVR-AMC with the final concentration of 20 μM was added into the reaction system as substrate, in the reaction system the test compound and enzyme had been incubated at 25° C. for 15 min.

human cathepsin B = human cathepsin B (Homo sapiens, UniProt P07858); experiment: Assay of cathepsin B inhibitory activity in vitro; conditions: IC50 against human cathepsin B; substrate Z-Phe-Arg-AMC 10 μM; 25° C.; read-out: Cat-B
Method: Assay Method of Cathepsin B Inhibitory Activity In Vitro
0.01 ng/μL was the final concentration of Cathepsin B in the enzyme reaction, and Z-Phe-Arg-AMC with the final concentration of 10 μM was added into the reaction system as substrate, in the reaction system the test compound and enzyme had been incubated at 25° C. for 15 min.

human cathepsin L = human cathepsin L (Homo sapiens, UniProt P07711); experiment: Assay of cathepsin L inhibitory activity in vitro; conditions: IC50 against human cathepsin L; substrate Z-Phe-Arg-AMC 10 μM; 25° C.; read-out: Cat-L
Method: Assay Method of Cathepsin L Inhibitory Activity In Vitro
0.01 ng/μL was the final concentration of Cathepsin L in the enzyme reaction, and Z-Phe-Arg-AMC with the final concentration of 10 μM was added into the reaction system as substrate, in the reaction system the test compound and enzyme had been incubated at 25° C. for 15 min.

human cathepsin K = biological target: T1, human cathepsin K (Homo sapiens, UniProt P43235); experiment: Assay of cathepsin K inhibitory activity in vitro; conditions: IC50 against human cathepsin K; substrate Z-Phe-Arg-AMC 10 μM; 25° C.; read-out: Cat-K
T1 sequence (P43235 115-329): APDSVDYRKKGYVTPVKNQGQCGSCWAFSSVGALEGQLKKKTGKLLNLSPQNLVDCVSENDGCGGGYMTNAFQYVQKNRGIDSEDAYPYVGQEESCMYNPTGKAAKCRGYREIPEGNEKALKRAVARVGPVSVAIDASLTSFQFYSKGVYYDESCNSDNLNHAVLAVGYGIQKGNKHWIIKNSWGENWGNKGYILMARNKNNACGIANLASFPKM
Method: Assay Method of Cathepsin K Inhibitory Activity In Vitro
Using 45000-fold diluted cathepsin K solution and 10 μM Z-Phe-Arg-AMC as substrate, the test compound and cathepsin K solution were incubated at 25° C. for 15 min in a 15 μL reaction system according to the optimized experimental condition.

human cathepsin L, sequence (P07711 114-333): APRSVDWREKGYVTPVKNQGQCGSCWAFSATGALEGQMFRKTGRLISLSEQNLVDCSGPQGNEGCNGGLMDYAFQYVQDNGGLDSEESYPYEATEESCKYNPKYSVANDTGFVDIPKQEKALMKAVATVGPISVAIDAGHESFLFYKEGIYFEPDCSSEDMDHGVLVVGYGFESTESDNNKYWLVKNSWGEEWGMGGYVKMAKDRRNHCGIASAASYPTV
human cathepsin S, sequence (P25774 115-331): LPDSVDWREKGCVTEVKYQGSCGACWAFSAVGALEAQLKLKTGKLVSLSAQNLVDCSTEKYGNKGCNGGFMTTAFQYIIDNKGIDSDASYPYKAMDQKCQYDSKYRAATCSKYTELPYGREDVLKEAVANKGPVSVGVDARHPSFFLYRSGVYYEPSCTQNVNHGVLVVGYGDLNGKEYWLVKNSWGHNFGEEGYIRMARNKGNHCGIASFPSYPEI

SMILES | IC50 (human cathepsin S) | IC50 (human cathepsin B) | IC50 (human cathepsin L) | IC50 (human cathepsin K)
COc1ccc(-c2ccc3cc(C(=O)NC4(C(=O)NC5(C#N)CC5)CCC(F)(F)CC4)oc3c2)cc1OC [Example 4, N-(1-((1-cyanocyclopropyl)carbamoyl)-4,4-difluorocyclohexyl)-6-(3,4-dimethoxyphenyl)benzofuran-2-carboxamide] | > 10 µM | 2.5 µM | > 10 µM | 0.0021 µM
CS(=O)(=O)c1ccc(-c2ccc3cc(C(=O)NC4(C(=O)NC5(C#N)CC5)CCCCC4)oc3c2)c(F)c1 [Example 5, N-(1-((1-cyanocyclopropyl)carbamoyl)cyclohexyl)-6-(2-fluoro-4-(methylsulfonyl)phenyl)benzofuran-2-carboxamide] | 1.6 µM | 0.078 µM | > 10 µM | 0.0011 µM
N#CC1(NC(=O)C2(NC(=O)c3cc4ccc(-c5ccc(C(O)CO)cc5)cc4o3)CCC(F)(F)CC2)CC1 (stereo not shown) [Example 6, N-(1-((1-cyanocyclopropyl)carbamoyl)-4,4-difluorocyclohexyl)-6-(4-(1,2-dihydroxyethyl)phenyl)benzofuran-2-carboxamide] | 0.62 µM | 0.75 µM | > 10 µM | 0.0031 µM
N#CC1(NC(=O)C2(NC(=O)c3cc4ccc(-c5ccc(C(O)C(F)F)cc5)cc4o3)CCCCC2)CC1 (stereo not shown) [Example 7, N-(1-((1-cyanocyclopropyl)carbamoyl)cyclohexyl)-6-(4-(2,2-difluoro-1-hydroxyethyl)phenyl)benzofuran-2-carboxamide] | 2.1 µM | 0.103 µM | > 10 µM | 0.00062 µM
N#CC1(NC(=O)C2(NC(=O)c3cc4ccc(-c5ccc(C6(N)COC6)cc5)cc4o3)CCC(F)(F)CC2)CC1 [Example 14, 6-(4-(3-aminooxetan-3-yl)phenyl)-N-(1-((1-cyanocyclopropyl)carbamoyl)-4,4-difluorocyclohexyl)benzofuran-2-carboxamide] | 0.26 µM | 0.086 µM | 3.1 µM | 0.00038 µM
N#CC1(NC(=O)C2(NC(=O)c3cc4ccc(-c5ccc(C(O)C6(O)CC6)cc5)cc4o3)CCC(F)(F)CC2)CC1 (stereo not shown) [Example 15, N-(1-((1-cyanocyclopropyl)carbamoyl)-4,4-difluorocyclohexyl)-6-(4-(hydroxy(1-hydroxycyclopropyl)methyl)phenyl)benzofuran-2-carboxamide] | 0.62 µM | 0.75 µM | > 10 µM | 0.0031 µM
N#CC1(NC(=O)C2(NC(=O)c3cc4ccc(-c5ccc(C6(O)CCOCC6)cc5)cc4o3)CCC(F)(F)CC2)CC1 [Example 22, N-(1-((1-cyanocyclopropyl)carbamoyl)-4,4-difluorocyclohexyl)-6-(4-(4-hydroxytetrahydro-2H-pyran-4-yl)phenyl)benzofuran-2-carboxamide] | 1.8 µM | 3.1 µM | > 10 µM | 0.0018 µM
N#CC1(NC(=O)C2(NC(=O)c3cc4ccc(-c5ccc(C6(O)CCS(=O)(=O)CC6)cc5)cc4o3)CCC(F)(F)CC2)CC1 [Example 27, N-(1-((1-cyanocyclopropyl)carbamoyl)-4,4-difluorocyclohexyl)-6-(4-(4-hydroxy-1,1-dioxidotetrahydro-2H-thiopyran-4-yl)phenyl)benzofuran-2-carboxamide] | 0.4 µM | 2.1 µM | > 10 µM | 0.00083 µM
N#CC1(NC(=O)C2(NC(=O)c3cc4ccc(-c5ccc(N6CCOCC6=O)cc5)cc4o3)CCC(F)(F)CC2)CC1 [Example 28, N-(1-((1-cyanocyclopropyl)carbamoyl)-4,4-difluorocyclohexyl)-6-(4-(3-oxomorpholino)phenyl)benzofuran-2-carboxamide] | 1.9 µM | 2.2 µM | > 10 µM | 0.0012 µM
N#CC1(NC(=O)C2(NC(=O)c3cc4ccc(-c5ccc6ncoc6c5)cc4o3)CCC(F)(F)CC2)CC1 [Example 32, 6-(benzo[d]oxazol-6-yl)-N-(1-((1-cyanocyclopropyl)carbamoyl)-4,4-difluorocyclohexyl)benzofuran-2-carboxamide] | 3.3 µM | 7.6 µM | > 10 µM | 0.0019 µM
N#CC1(NC(=O)C2(NC(=O)c3cc4ccc(-c5ccc6c(c5)OCCO6)cc4o3)CCC(F)(F)CC2)CC1 [Example 33, N-(1-((1-cyanocyclopropyl)carbamoyl)-4,4-difluorocyclohexyl)-6-(2,3-dihydrobenzo[b][1,4]dioxin-6-yl)benzofuran-2-carboxamide] | > 10 µM | 2.3 µM | > 10 µM | 0.00295 µM
COc1cc(-c2ccc3cc(C(=O)NC4(C(=O)NC5(C#N)CC5)CCC(F)(F)CC4)oc3c2)ccc1OCC(C)(C)O [Example 44, N-(1-((1-cyanocyclopropyl)carbamoyl)-4,4-difluorocyclohexyl)-6-(4-(2-hydroxy-2-methylpropoxy)-3-methoxyphenyl)benzofuran-2-carboxamide] | > 10 µM | 7.97 µM | > 10 µM | 0.00235 µM
N#CC1(NC(=O)C2(NC(=O)c3cc4ccc(-c5ccc(S(=O)(=O)N6CCOCC6)cc5)cc4o3)CCC(F)(F)CC2)CC1 [Example 47, N-(1-((1-cyanocyclopropyl)carbamoyl)-4,4-difluorocyclohexyl)-6-(4-(morpholinosulfonyl)phenyl)benzofuran-2-carboxamide] | > 10 µM | > 10 µM | > 10 µM | 0.00101 µM
CS(=O)(=O)COc1ccc(-c2ccc3cc(C(=O)NC4(C(=O)NC5(C#N)CC5)CCC(F)(F)CC4)oc3c2)cc1 [Example 98] | – | – | – | 0.00102 µM
COc1cc(-c2ccc3cc(C(=O)NC4(C(=O)NC5(C#N)CC5)CCC(F)(F)CC4)oc3c2)ccc1OCS(C)(=O)=O [Example 101] | – | – | – | 0.00088 µM

More lines, now with the values ahead:

IC50 (human cathepsin S) | IC50 (human cathepsin B) | IC50 (human cathepsin L) | IC50 (human cathepsin K) | SMILES
1.8 µM | 0.022 µM | 1.5 µM | 0.00019 µM | N#CC1(NC(=O)C2(NC(=O)c3cc4ccc(-c5ccc(C6(N)COC6)cc5)cc4o3)CCCCC2)CC1 [Example 1, 6-(4-(3-aminooxetan-3-yl)phenyl)-N-(1-((1-cyanocyclopropyl)carbamoyl)cyclohexyl)benzofuran-2-carboxamide]
4 µM | 0.88 µM | > 10 µM | 0.00137 µM | CS(=O)(=O)c1ccc(-c2ccc3cc(C(=O)NC4(C(=O)NC5(C#N)CC5)CCC(F)(F)CC4)oc3c2)cc1 [Example 2, N-(1-((1-cyanocyclopropyl)carbamoyl)-4,4-difluorocyclohexyl)-6-(4-(methylsulfonyl)phenyl)benzofuran-2-carboxamide]
3.5 µM | 0.41 µM | > 10 µM | 0.0027 µM | N#CC1(NC(=O)C2(NC(=O)c3cc4ccc(-c5ccc(C6(O)CCC6)cc5)cc4o3)CCCCC2)CC1 [Example 9, N-(1-((1-cyanocyclopropyl)carbamoyl)cyclohexyl)-6-(4-(1-hydroxycyclobutyl)phenyl)benzofuran-2-carboxamide]
2.3 µM | > 10 µM | > 10 µM | 0.002 µM | N#CC1(NC(=O)C2(NC(=O)c3cc4ccc(-c5ccc(OC6COC6)cc5)cc4o3)CCC(F)(F)CC2)CC1 [Example 19, N-(1-((1-cyanocyclopropyl)carbamoyl)-4,4-difluorocyclohexyl)-6-(4-(oxetan-3-yloxy)phenyl)benzofuran-2-carboxamide]
> 10 µM | 0.409 µM | > 10 µM | 0.00031 µM | COc1cc(-c2ccc3cc(C(=O)NC4(C(=O)NC5(C#N)CC5)CCC(F)(F)CC4)oc3c2)ccc1-n1cncn1 [Example 39, N-(1-((1-cyanocyclopropyl)carbamoyl)-4,4-difluorocyclohexyl)-6-(3-methoxy-4-(1H-1,2,4-triazol-1-yl)phenyl)benzofuran-2-carboxamide]
> 10 µM | 2.22 µM | > 10 µM | 0.00096 µM | COc1cc(-c2ccc3cc(C(=O)NC4(C(=O)NC5(C#N)CC5)CCC(F)(F)CC4)oc3c2)ccc1C(=O)N1CCOCC1 [Example 40, N-(1-((1-cyanocyclopropyl)carbamoyl)-4,4-difluorocyclohexyl)-6-(3-methoxy-4-(morpholine-4-carbonyl)phenyl)benzofuran-2-carboxamide]
– | – | – | 0.00056 µM | COc1cc(-c2ccc3cc(C(=O)NC4(C(=O)NC5(C#N)CC5)CCC(F)(F)CC4)oc3c2)ccc1CS(C)(=O)=O [Example 100]
